Tests used:
[1] = Reversal of P-gp mediated multidrug resistance in human HepG2/DOX cells assessed as doxorubicin IC50 at 5 uM measured within 48 hrs by MTT assay (Rvb = 69.3 +/- 3.9 uM)
[2] = Reversal of P-gp mediated multidrug resistance in human MCF7/ADM cells assessed as doxorubicin IC50 at 5 uM measured within 48 hrs by MTT assay (Rvb = 151.7 +/- 5 uM)
[3] = Reversal of P-gp mediated multidrug resistance in human HepG2/DOX cells assessed as doxorubicin IC50 at 10 uM measured within 48 hrs by MTT assay (Rvb = 69.3 +/- 3.9 uM)
[4] = Reversal of P-gp mediated multidrug resistance in human MCF7/ADM cells assessed as doxorubicin IC50 at 10 uM measured within 48 hrs by MTT assay (Rvb = 151.7 +/- 5 uM)

Question: Which IC50 [1] does the source give for `CCCN(C(=O)CCCCCCC(=O)N(CCC)[C@H]1CC2=CC(=O)O[C@]23C[C@H]1N1CCCC[C@H]13)[C@H]1CC2=CC(=O)O[C@]23C[C@H]1N1CCCC[C@H]13` here?
Answer: 1.4 µM

Question: What about the IC50 [2] of the same compound?
Answer: 14.6 µM

Question: What about the IC50 [3] of the same compound?
Answer: 0.3 µM

Question: What about the IC50 [4] of the same compound?
Answer: 1.2 µM

— BindingDB's records for doi:10.1016/j.ejmech.2019.111726 (Jinan University, 2019)
